Square brackets hold non-standard residues; d marks the D form. Peptide text beside a SMILES is read from it.
Columns and labels:
[1] = test system: rat whole blood; assay: PMA+ionomycin-induced IL-2 release in rat whole blood; format: cell-based; settings: 10 μM; three activator concentrations, 4 h
Experimental: FIG. 17 Dose dependent inhibition of IL-2 release in rat whole blood stimulated with PMA+ionomycin. JNK inhibitor with SEQ ID NO: 172 was added at three different concentrations, namely 1, 3 and 10 μM 1 h before stimulation with PMA+ionomycin. Three doses of activators were added (25/500 ng/mL, 50/750 ng/mL and 50/1000 ng/mL) for 4 h. IL-2 release was assessed in supernatant.
Whole blood is collected from anesthetized rat or human healthy volunteers using a venipuncture connected to a pre-labeled vacuum tube containing sodium citrate. Tubes are gently mixed by inversion 7-8 times; and are then kept at RT until stimulation. JNK inhibitor of SEQ ID NO: 172 is prepared 6 times concentrated in PBS, and 30 μl/well of mix is added into 96-well plate. Whole blood is diluted by 1:2 in PBS and 120 μl of diluted blood is added in each well where either PBS alone or JNK inhibitor of SEQ ID NO: 172 has been previously added. Whole blood is incubated at 37° C.; 85 rpm (Stuart Orbital incubator SI500) for 60 min. Activators (LPS) are the prepared, 30 μl/well of LPS, 6 times concentrated. […] Cytokine (IL-6, IL-2, IFNγ and TNFα) were then measured using standard Elisa kits (e.g. from R&D Systems: DuoSet Elisas; or from BD Biosciences: BD Opteia Set Elisa). Results are expressed as pg/ml of supernatant of the measured cytokine. […]

[2] = test system: Imiquimod-induced psoriasis in mice; assay: Imiquimod-induced psoriasis, ear histopathology; format: in vivo, mouse
Experimental: Female BALB/cAnNCrl mice (Charles River, age 8 to 10 weeks at study start) have been assigned to the following groups (treatment schedule):
In this experiment, two positive controls have been utilized. Firstly, Prednisolone at 10 mg/kg (vehicle: 1% Hydroxyethylcellulose, 0.25% Polysorbate 80, and 0.05% Antifoam in purified water) has been dosed daily and orally (group “Prednisolone”). Secondly, Dexamethasone has been administered at 0.5 mg/kg (vehicle: sterile 0.9% NaCl) on days 1, 4 and 7 via intravenous route.
On day 8, animals have been sacrificed and the tissue (ear) has been fixed in 10% neutral buffered formalin. For histopathology hematoxylin-and-eosin-stained sections (cross cut) have been prepared and microscopic evaluation on the collected tissues from all animals has been performed. Methods and end-points for histopathology were similarly described in the van der Fits (2009) paper in that inflammation, epidermal hyperplasia, epidermal hyperkeratosis (rather than parakeratosis) were observed and recorded for severity grade, whereby the respective methodology from Van der Fits et al. (The Journal of Immunology 2009, 182, P. 5836-5845) is hereby incorporated by reference. Histopathology grading scores were excluded for either skin or ear in animals with secondary inflammatory processes (full thickness epidermal ulcers). Scores were averaged by group and standard deviation and statistical significance were calculated. […] Formalin-fixed, paraffin embedded skin from the dorsal surface of the mouse (BALB/c) was stained with hematoxylin and eosin (H&E) stain and assessed microscopically. An important difference from the above reference and to describe in more detail the observations of the present study: Hyperkeratosis can be defined specifically as orthokeratotic (no retained nuclei) or parakeratotic (retained nuclei). Either can occur normally in various anatomical locations and depending on species; however, both conditions are well defined in particular disease states. The van der Fits paper describes their Imiquimod (IMQ)-induced psoriasis model as causing parakeratotic hyperkeratosis similar to what is seen in the human condition, and that was a defined end-point for this study. However, the Danilenko et al. (Veterinary Pathology 2008 45:563) has shown that many rodent psoriasis models have orthokeratotic hyperkeratosis. […] The more general term ‘hyperkeratosis’ was used for grading end-points and describe in the text what type was seen (primarily orthokeratotic).
Microscopic Histopathology end-points were graded as such: […]

[3] = test system: human whole blood; assay: LPS-induced IL-6 release in human whole blood; format: cell-based; settings: 1, 3, 10 μM 1 h before LPS (0.02 ng/mL), 4 hours
Experimental: FIG. 18 JNK inhibition and IL-6 release in human whole blood. The JNK inhibitor with SEQ ID NO: 172 was added at three different concentrations, namely 1, 3 and 10 μM 1 h before whole blood stimulation with LPS (0.02 ng/mL) for 4 hours.
Whole blood is collected from anesthetized rat or human healthy volunteers using a venipuncture connected to a pre-labeled vacuum tube containing sodium citrate. Tubes are gently mixed by inversion 7-8 times; and are then kept at RT until stimulation. JNK inhibitor of SEQ ID NO: 172 is prepared 6 times concentrated in PBS, and 30 μl/well of mix is added into 96-well plate. Whole blood is diluted by 1:2 in PBS and 120 μl of diluted blood is added in each well where either PBS alone or JNK inhibitor of SEQ ID NO: 172 has been previously added. Whole blood is incubated at 37° C.; 85 rpm (Stuart Orbital incubator SI500) for 60 min. Activators (LPS) are the prepared, 30 μl/well of LPS, 6 times concentrated. After 60 min incubation, LPS is added to the blood, blood is mixed by pipetting up and down, and then kept for 4 h under agitation (85 rpm), at 37° C. […] Cytokine (IL-6, IL-2, IFNγ and TNFα) were then measured using standard Elisa kits (e.g. from R&D Systems: DuoSet Elisas; or from BD Biosciences: BD Opteia Set Elisa). Results are expressed as pg/ml of supernatant of the measured cytokine.

[4] = target: T1, hJNK1 (Homo sapiens, UniProt P45983); assay: hJNK1 | IC50; settings: read-out: hJNK1 | IC50
T1 construct: His; purchased Upstate 14-327
T1 sequence (P45983 whole entry, looked up): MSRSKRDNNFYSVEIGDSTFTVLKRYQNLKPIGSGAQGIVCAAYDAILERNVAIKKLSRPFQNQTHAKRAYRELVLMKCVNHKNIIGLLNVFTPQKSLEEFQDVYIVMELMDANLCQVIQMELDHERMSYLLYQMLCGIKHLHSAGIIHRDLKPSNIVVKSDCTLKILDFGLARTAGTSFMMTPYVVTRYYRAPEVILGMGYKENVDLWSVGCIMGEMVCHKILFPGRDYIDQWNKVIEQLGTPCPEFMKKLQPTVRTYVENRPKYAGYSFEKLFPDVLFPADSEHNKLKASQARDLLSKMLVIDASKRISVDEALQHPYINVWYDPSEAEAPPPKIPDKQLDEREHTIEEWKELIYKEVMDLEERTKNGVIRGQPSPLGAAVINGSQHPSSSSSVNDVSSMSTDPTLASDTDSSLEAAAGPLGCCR

CC(C)C[C@H](NC(=O)[C@H](CC(N)=O)NC(=O)[C@H](CC(C)C)NC(=O)[C@@H](NC(=O)[C@@H](C)NC(=O)[C@@H]1CCCN1C(=O)[C@H](CCCNC(=N)N)NC(=O)[C@@H](CCCCN)NC(=O)[C@@H]1CCCN1C(=O)[C@H](CCCNC(=N)N)NC(=O)[C@@H](CCCNC(=N)N)NC(=O)[C@H](CCCNC(=N)N)NC(=O)[C@H](CCCNC(=N)N)NC(=O)[C@H](CCC(N)=O)NC(=O)[C@@H](CCCNC(=N)N)NC(=O)[C@H](CCCNC(=N)N)NC(=O)[C@H](CCCCN)NC(=O)[C@H](CCCCN)NC(=O)[C@H](N)CCCNC(=N)N)[C@@H](C)O)C(=O)N[C@H](Cc1ccccc1)C(N)=O [SEQ ID NO: 172, rKKRrQRRrRPkRPaTLNLf] (H-[dR]KKR[dR]QRR[dR]RP[dK]RP[dA]TLNL[dF]-NH2; N-terminus assumed)
PMA-iono-induced IL-2 release [1]: did efficiently reduce
epidermal hyperkeratosis of the ear (average grades) ([2]; 0.02 mg/kg IV days 1, 4, 7): minimally decreased average grades
epidermal hyperplasia of the ear ([2]; 0.2 mg/kg IV days 1, 4, 7): Minimal decreases in epidermal hyperplasia of the ear
inflammation of the ear (average grade) vs vehicle-IMQ ([2]; 0.2 mg/kg IV days 1, 4, 7): decreased inflammation of the ear
inflammation of the ear (average grade) vs vehicle-IMQ ([2]; 0.2 mg/kg IV days 1, 4, 7, listed as XG-104): significant differences from the vehicle control group
inflammation of the ear (average grade) vs vehicle-IMQ ([2]; 2 mg/kg IV days 1, 4, 7): decreased inflammation of the ear
LPS-induced IL-6 release [3]: did reduce the LPS-induced IL-6 release in a dose-dependent manner
IC50 [4]: 722 nM

— US11331364B2, “Use for JNK inhibitor molecules for treatment of various diseases” (Xigen Inflammation Ltd., priority 2014, dated 2022)
